Source: patent US11000033B2, “Ketone or oxime compound, and herbicide” (NISSAN CHEMICAL CORPORATION, priority 2014, dated 2021)

Experiments:
Format in all cases: in vivo
soybean = experiment: Test Example 4: effect on crop by soil treatment (symbol d); conditions: application herbicide amount 320 g/ha
In short: (§1)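 The test used sterilized diluvial soil. Seed was set down in spots and overlaid with about 1.5 cm of soil before growth in a greenhouse kept at 25° C. to 30° C.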

[1] = test system: Echinochloa oryzacola Vasing.; experiment: Test Example 2: herbicidal activity, application during weed generation in submerged conditions (symbol A); conditions: Table 23; application herbicide amount 320 g/ha; grade 0-5 by criteria of Test Example 1
In short: (§2)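 Compound was applied as a water-diluted emulsion into the standing water of flooded pots (4 cm) once co-sown weeds reached one to two leaves. Greenhouse temperature was 25° C. to 30° C., soil was alluvial, and each species was rated visually after 3 weeks.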

Alopecurus myosuroides [2] = experiment: Test Example 5: herbicidal effect by foliage application, plastic box (symbol J); conditions: 320 g/ha, 3 weeks after application
In short: (§3)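 Sowing in sterilized diluvial soil, 14 days' greenhouse growth at 25° C. to 30° C., then uniform small-sprayer foliar application of aqueous emulsion dilution; plants scored three weeks afterwards.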

Cyperus difformis = experiment: Test Example 3: herbicidal effect by foliage application, Wagner pot (symbol E); conditions: application herbicide amount 320 g/ha
In short: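 In a shallow-flooded alluvial soil system held at 25–30 °C, plants including rice grew for 14 days and were then sprayed over the foliage with emulsion diluted to a fixed herbicide amount. Visual rating followed at 3 weeks.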

beet = experiment: Test Example 4: effect on crop by soil treatment (symbol f); conditions: application herbicide amount 320 g/ha
In short: as §1

wheat [3] = experiment: Test Example 4: effect on crop by soil treatment (symbol e); conditions: application herbicide amount 320 g/ha
In short: as §1

[4] = test system: Echinochloa oryzacola Vasing.; experiment: Test Example 1: herbicidal activity, application before weed generation in submerged conditions (symbol A); conditions: application herbicide amount 320 g/ha
In short: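 Weeds are sown into submerged alluvial soil alongside transplanted 2.5-leaf rice, and the compound, as an emulsion diluted to a set rate, is applied onto the water before emergence. Rating on the 0–5 herbicidal-ratio scale follows 3 weeks of greenhouse growth at 25–30 °C.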

wheat [5] = experiment: Test Example 5: effect on crop by foliage application, plastic box (symbol e); conditions: 320 g/ha, 3 weeks after application
In short: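 Foliage-application test plants come from spot sowing in sterilized diluvial soil under a soil layer of about 1.5 cm, grown at 25° C. to 30° C. in a greenhouse.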

Amaranthus retroflexus = experiment: Test Example 5: herbicidal effect by foliage application, plastic box (symbol N); conditions: 320 g/ha, 3 weeks after application
In short: as §3

[6] = test system: Echinochloa crus-galli var. crus-galli; experiment: Test Example 4: herbicidal effect by soil treatment (symbol H); conditions: application herbicide amount 320 g/ha
In short: (§4)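 Seeds were sown in sterilized diluvial soil, covered with about 1.5 cm of soil, and the soil surface was sprayed with a water-diluted emulsion of the compound at a predetermined rate. Plants grew in a greenhouse at 25° C. to 30° C.; effects were scored visually 3 weeks after application.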

Monochoria vaginalis = experiment: Test Example 2: herbicidal activity, application during weed generation in submerged conditions (symbol C); conditions: Table 23; application herbicide amount 320 g/ha; grade 0-5 by criteria of Test Example 1
In short: as §2

Alopecurus myosuroides [7] = experiment: Test Example 4: herbicidal effect by soil treatment (symbol J); conditions: application herbicide amount 320 g/ha
In short: as §4

SMILES	Effect on crop grade, d: soybean (soybean)	Herbicidal effect grade, A: Echinochloa oryzacola Vasing. [1]	J: Alopecurus myosuroides, herbicidal effect (criteria of Test Example 1) (Alopecurus myosuroides [2])	herbicidal effect on E, grade 0-5 (Cyperus difformis)	Effect on crop grade, f: beet (beet)	Effect on crop grade, e: wheat (wheat [3])	Herbicidal effect grade, A: Echinochloa oryzacola Vasing. [4]	e: wheat, effect on crop (criteria of Test Example 1) (wheat [5])	N: Amaranthus retroflexus, herbicidal effect (criteria of Test Example 1) (Amaranthus retroflexus)	Herbicidal effect grade, H: Echinochloa crus-galli var. crus-galli [6]	Herbicidal effect grade, C: Monochoria vaginalis (Monochoria vaginalis)	Herbicidal effect grade, J: Alopecurus myosuroides (Alopecurus myosuroides [7])
COc1ccc(-c2cc(C)c(C3=C(O)CC(CC(C)=O)C3=O)c(C)c2)cc1 (stereo not drawn) [7-006]	1 (Herbicidal ratio of 5% or higher and lower than 20%)	2 (Herbicidal ratio of 20% or higher and lower than 40%)	3 (Herbicidal ratio of 40% or higher and lower than 70%)	0 (Herbicidal ratio of 5% or lower (almost no effect))	0 (Herbicidal ratio of 5% or lower (almost no effect))	0 (Herbicidal ratio of 5% or lower (almost no effect))	3 (Herbicidal ratio of 40% or higher and lower than 70%)	0 (Herbicidal ratio of 5% or lower (almost no effect))	0 (Herbicidal ratio of 5% or lower (almost no effect))	0 (Herbicidal ratio of 5% or lower (almost no effect))	0 (Herbicidal ratio of 5% or lower (almost no effect))	0 (Herbicidal ratio of 5% or lower (almost no effect))
CC(=O)CC1CC(O)=C(c2c(C)cc(-c3ccc(C)cc3)cc2C)C1=O (stereo not drawn) [7-007]	0 (Herbicidal ratio of 5% or lower (almost no effect))	5 (Herbicidal ratio of 90% or more (almost completely withered))	5 (Herbicidal ratio of 90% or more (almost completely withered))	4 (Herbicidal ratio of 70% or higher and lower than 90%)	0 (Herbicidal ratio of 5% or lower (almost no effect))	0 (Herbicidal ratio of 5% or lower (almost no effect))	5 (Herbicidal ratio of 90% or more (almost completely withered))	2 (Herbicidal ratio of 20% or higher and lower than 40%)	0 (Herbicidal ratio of 5% or lower (almost no effect))	5 (Herbicidal ratio of 90% or more (almost completely withered))	3 (Herbicidal ratio of 40% or higher and lower than 70%)	5 (Herbicidal ratio of 90% or more (almost completely withered))
CC(=O)CC1CC(O)=C(c2c(C)cc(-c3ccc(Cl)cc3)cc2C)C1=O (stereo not drawn) [7-008]	0 (Herbicidal ratio of 5% or lower (almost no effect))	4 (Herbicidal ratio of 70% or higher and lower than 90%)	5 (Herbicidal ratio of 90% or more (almost completely withered))	5 (Herbicidal ratio of 90% or more (almost completely withered))	0 (Herbicidal ratio of 5% or lower (almost no effect))	1 (Herbicidal ratio of 5% or higher and lower than 20%)	4 (Herbicidal ratio of 70% or higher and lower than 90%)	4 (Herbicidal ratio of 70% or higher and lower than 90%)	0 (Herbicidal ratio of 5% or lower (almost no effect))	5 (Herbicidal ratio of 90% or more (almost completely withered))	0 (Herbicidal ratio of 5% or lower (almost no effect))	5 (Herbicidal ratio of 90% or more (almost completely withered))
CC#Cc1cc(C)c(C2=C(O)CC(CC(C)=O)C2=O)c(C)c1 (stereo not drawn) [7-010]	2 (Herbicidal ratio of 20% or higher and lower than 40%)	5 (Herbicidal ratio of 90% or more (almost completely withered))	5 (Herbicidal ratio of 90% or more (almost completely withered))	5 (Herbicidal ratio of 90% or more (almost completely withered))	0 (Herbicidal ratio of 5% or lower (almost no effect))	4 (Herbicidal ratio of 70% or higher and lower than 90%)	5 (Herbicidal ratio of 90% or more (almost completely withered))	5 (Herbicidal ratio of 90% or more (almost completely withered))	1 (Herbicidal ratio of 5% or higher and lower than 20%)	5 (Herbicidal ratio of 90% or more (almost completely withered))	1 (Herbicidal ratio of 5% or higher and lower than 20%)	5 (Herbicidal ratio of 90% or more (almost completely withered))
CC(=O)CC1CC(O)=C(c2c(C)cc(C)cc2Br)C1=O (stereo not drawn) [7-011]	0 (Herbicidal ratio of 5% or lower (almost no effect))	3 (Herbicidal ratio of 40% or higher and lower than 70%)	4 (Herbicidal ratio of 70% or higher and lower than 90%)	5 (Herbicidal ratio of 90% or more (almost completely withered))	0 (Herbicidal ratio of 5% or lower (almost no effect))	0 (Herbicidal ratio of 5% or lower (almost no effect))	2 (Herbicidal ratio of 20% or higher and lower than 40%)	0 (Herbicidal ratio of 5% or lower (almost no effect))	5 (Herbicidal ratio of 90% or more (almost completely withered))	4 (Herbicidal ratio of 70% or higher and lower than 90%)	0 (Herbicidal ratio of 5% or lower (almost no effect))	3 (Herbicidal ratio of 40% or higher and lower than 70%)
CC(=O)CC1CC(O)=C(c2c(C)cc(-c3ccccn3)cc2C)C1=O (stereo not drawn) [7-012]	0 (Herbicidal ratio of 5% or lower (almost no effect))	3 (Herbicidal ratio of 40% or higher and lower than 70%)	3 (Herbicidal ratio of 40% or higher and lower than 70%)	4 (Herbicidal ratio of 70% or higher and lower than 90%)	0 (Herbicidal ratio of 5% or lower (almost no effect))	0 (Herbicidal ratio of 5% or lower (almost no effect))	3 (Herbicidal ratio of 40% or higher and lower than 70%)	1 (Herbicidal ratio of 5% or higher and lower than 20%)	0 (Herbicidal ratio of 5% or lower (almost no effect))	5 (Herbicidal ratio of 90% or more (almost completely withered))	0 (Herbicidal ratio of 5% or lower (almost no effect))	2 (Herbicidal ratio of 20% or higher and lower than 40%)
CC(=O)CC1CC(O)=C(c2c(C)cc(OCC(F)(F)F)cc2C)C1=O (stereo not drawn) [7-015]	0 (Herbicidal ratio of 5% or lower (almost no effect))	5 (Herbicidal ratio of 90% or more (almost completely withered))	5 (Herbicidal ratio of 90% or more (almost completely withered))	5 (Herbicidal ratio of 90% or more (almost completely withered))	0 (Herbicidal ratio of 5% or lower (almost no effect))	4 (Herbicidal ratio of 70% or higher and lower than 90%)	5 (Herbicidal ratio of 90% or more (almost completely withered))	5 (Herbicidal ratio of 90% or more (almost completely withered))	0 (Herbicidal ratio of 5% or lower (almost no effect))	5 (Herbicidal ratio of 90% or more (almost completely withered))	0 (Herbicidal ratio of 5% or lower (almost no effect))	5 (Herbicidal ratio of 90% or more (almost completely withered))
